Laboratory results as given in ChEMBL document CHEMBL3862012, “Methylene versus carbonyl bridge in the structure of new tubulin polymerization inhibitors with tricyclic A-rings” (Bioorg Med Chem, 2016).

Key:
[1] = Cytotoxicity against human Hs 578T cells assessed as growth inhibition at 10 uM after 48 hrs by SRB assay relative to control; type: functional; details: read-out: GI
[2] = Cytotoxicity against human HOP62 cells assessed as growth inhibition at 10 uM after 48 hrs by SRB assay relative to control; type: functional; details: HOP-62, 48 h, read-out: GI
[3] = Cytotoxicity against human SNB75 cells assessed as growth inhibition at 10 uM after 48 hrs by SRB assay relative to control; type: functional; details: SNB-75, 48 h, read-out: GI
[4] = Cytotoxicity against human T47D cells assessed as growth inhibition at 10 uM after 48 hrs by SRB assay relative to control; type: functional; details: read-out: GI
[5] = Cytotoxicity against human LOXIMVI cells assessed as growth inhibition at 10 uM after 48 hrs by SRB assay relative to control; type: functional; details: LOX IMVI, read-out: GI
[6] = Cytotoxicity against human RXF393 cells assessed as growth inhibition at 10 uM after 48 hrs by SRB assay relative to control; type: functional; details: RXF 393, 48 h, read-out: GI
[7] = Cytotoxicity against human HL-60(TB) cells assessed as growth inhibition at 10 uM after 48 hrs by SRB assay relative to control; type: functional; details: HL-60, 48 h, read-out: GI
[8] = Cytotoxicity against human OVCAR5 cells assessed as growth inhibition at 10 uM after 48 hrs by SRB assay relative to control; type: functional; details: OVCAR-5, 48 h, read-out: GI
[9] = Cytotoxicity against human OVCAR3 cells assessed as growth inhibition at 10 uM after 48 hrs by SRB assay relative to control; type: functional; details: OVCAR-3, 48 h, read-out: GI
[10] = Cytotoxicity against human TK10 cells assessed as growth inhibition at 10 uM after 48 hrs by SRB assay relative to control; type: functional; details: TK-10, 48 h, read-out: GI
[11] = Cytotoxicity against human SW620 cells assessed as growth inhibition at 10 uM after 48 hrs by SRB assay relative to control; type: functional; details: SW-620, 48 h, read-out: GI
[12] = Cytotoxicity against human SF268 cells assessed as growth inhibition at 10 uM after 48 hrs by SRB assay relative to control; type: functional; details: SF-268, 48 h, read-out: GI
[13] = Cytotoxicity against human SF295 cells assessed as growth inhibition at 10 uM after 48 hrs by SRB assay relative to control; type: functional; details: SF-295, 48 h, read-out: GI
[14] = Cytotoxicity against human HT-29 cells assessed as growth inhibition at 10 uM after 48 hrs by SRB assay relative to control; type: functional; details: HT-29, 48 h, read-out: GI
[15] = Cytotoxicity against human NCI-H460 cells assessed as growth inhibition at 10 uM after 48 hrs by SRB assay relative to control; type: functional; details: NCI-H460, 48 h, read-out: GI
[16] = Cytotoxicity against human 786-0 cells assessed as growth inhibition at 10 uM after 48 hrs by SRB assay relative to control; type: functional; details: 786-0, 48 h, read-out: GI
[17] = Cytotoxicity against human NCI-H322M cells assessed as growth inhibition at 10 uM after 48 hrs by SRB assay relative to control; type: functional; details: read-out: GI
[18] = Cytotoxicity against human MCF7 cells assessed as growth inhibition at 10 uM after 48 hrs by SRB assay relative to control; type: functional; details: MCF7, 48 h, read-out: GI
[19] = Cytotoxicity against human HCT15 cells assessed as growth inhibition at 10 uM after 48 hrs by SRB assay relative to control; type: functional; details: HCT-15, 48 h, read-out: GI
[20] = Cytotoxicity against human MDA-MB-435 cells assessed as growth inhibition at 10 uM after 48 hrs by SRB assay relative to control; type: functional; details: MDA-MB-435, 48 h, read-out: GI
[21] = Cytotoxicity against human CCRF-CEM cells assessed as growth inhibition at 10 uM after 48 hrs by SRB assay relative to control; type: functional; details: read-out: GI
[22] = Cytotoxicity against human EKVX cells assessed as growth inhibition at 10 uM after 48 hrs by SRB assay relative to control; type: functional; details: read-out: GI
[23] = Cytotoxicity against human UO31 cells assessed as growth inhibition at 10 uM after 48 hrs by SRB assay relative to control; type: functional; details: UO-31, 48 h, read-out: GI
[24] = Cytotoxicity against human M14 cells assessed as growth inhibition at 10 uM after 48 hrs by SRB assay relative to control; type: functional; details: M14, 48 h, read-out: GI
[25] = Cytotoxicity against human SF539 cells assessed as growth inhibition at 10 uM after 48 hrs by SRB assay relative to control; type: functional; details: SF-539, 48 h, read-out: GI
[26] = Cytotoxicity against human A498 cells assessed as growth inhibition at 10 uM after 48 hrs by SRB assay relative to control; type: functional; details: A498, 48 h, read-out: GI
[27] = Cytotoxicity against human BT549 cells assessed as growth inhibition at 10 uM after 48 hrs by SRB assay relative to control; type: functional; details: BT-549, 48 h, read-out: GI
[28] = Cytotoxicity against human NCI-H23 cells assessed as growth inhibition at 10 uM after 48 hrs by SRB assay relative to control; type: functional; details: NCI-H23, 48 h, read-out: GI
Ovis aries = species on record: Ovis aries; assay: Inhibition of sheep brain tubulin polymerization at 100 uM by DAPI staining-based fluorimetric method relative to control
[29] = Cytotoxicity against human A549 cells assessed as growth inhibition at 10 uM after 48 hrs by SRB assay relative to control; type: functional; details: A549, 48 h, read-out: GI
[30] = Cytotoxicity against human KM12 cells assessed as growth inhibition at 10 uM after 48 hrs by SRB assay relative to control; type: functional; details: KM12, 48 h, read-out: GI
[31] = Cytotoxicity against human COLO205 cells assessed as growth inhibition at 10 uM after 48 hrs by SRB assay relative to control; type: functional; details: COLO 205, 48 h, read-out: GI
[32] = Cytotoxicity against human U251 cells assessed as growth inhibition at 10 uM after 48 hrs by SRB assay relative to control; type: functional; details: U-251, 48 h, read-out: GI
[33] = Cytotoxicity against human NCI-H522 cells assessed as growth inhibition at 10 uM after 48 hrs by SRB assay relative to control; type: functional; details: NCI-H522, 48 h, read-out: GI
[34] = Cytotoxicity against human OVCAR4 cells assessed as growth inhibition at 10 uM after 48 hrs by SRB assay relative to control; type: functional; details: OVCAR-4, 48 h, read-out: GI
[35] = Cytotoxicity against human ACHN cells assessed as growth inhibition at 10 uM after 48 hrs by SRB assay relative to control; type: functional; details: read-out: GI
[36] = Cytotoxicity against human HCT116 cells assessed as growth inhibition at 10 uM after 48 hrs by SRB assay relative to control; type: functional; details: HCT-116, 48 h, read-out: GI
[37] = Cytotoxicity against human MDA-MB-231 cells assessed as growth inhibition at 10 uM after 48 hrs by SRB assay relative to control; type: functional; details: MDA-MB-231, 48 h, read-out: GI

Structure (SMILES)	inhibition of growth at 10 µM [1] [%]	inhibition of growth at 10 µM [2] [%]	inhibition of growth at 10 µM [3] [%]	inhibition of growth at 10 µM [4] [%]	inhibition of growth at 10 µM [5] [%]	inhibition of growth at 10 µM [6] [%]	inhibition of growth at 10 µM [7] [%]	inhibition of growth at 10 µM [8] [%]	inhibition of growth at 10 µM [9] [%]	inhibition of growth at 10 µM [10] [%]	inhibition of growth at 10 µM [11] [%]	inhibition of growth at 10 µM [12] [%]	inhibition of growth at 10 µM [13] [%]	inhibition of growth at 10 µM [14] [%]	inhibition of growth at 10 µM [15] [%]	inhibition of growth at 10 µM [16] [%]	inhibition of growth at 10 µM [17] [%]	inhibition of growth at 10 µM [18] [%]	inhibition of growth at 10 µM [19] [%]	inhibition of growth at 10 µM [20] [%]	further results
COc1ccc(CN2c3ccccc3Sc3ccccc32)c(C(F)(F)F)c1	77	59	92	74	45	100	76	35	94	34	74	44	98	98	90	58	51	76	63	100	inhibition of growth at 10 µM [21]: 90%; inhibition of growth at 10 µM [22]: 50%; inhibition of growth at 10 µM [23]: 54%; inhibition of growth at 10 µM [24]: 92%; inhibition of growth at 10 µM [25]: 100%; inhibition of growth at 10 µM [26]: 96%; inhibition of growth at 10 µM [27]: 47%; inhibition of growth at 10 µM [28]: 56%; inhibition (Ovis aries): 15%; inhibition of growth at 10 µM [29]: 67%; inhibition of growth at 10 µM [30]: 80%; inhibition of growth at 10 µM [31]: 100%; inhibition of growth at 10 µM [32]: 79%; inhibition of growth at 10 µM [33]: 100%; inhibition of growth at 10 µM [34]: 56%; inhibition of growth at 10 µM [35]: 51%; inhibition of growth at 10 µM [36]: 92%; inhibition of growth at 10 µM [37]: 59%
COc1ccc(CN2c3ccccc3Oc3ccccc32)cc1F	38	48	52	42	41	16	46	13	57	26	66	15	67	89	52	21	8	57	53	100	inhibition of growth at 10 µM [21]: 33%; inhibition of growth at 10 µM [22]: 39%; inhibition of growth at 10 µM [23]: 47%; inhibition of growth at 10 µM [24]: 66%; inhibition of growth at 10 µM [25]: 35%; inhibition of growth at 10 µM [26]: 46%; inhibition of growth at 10 µM [27]: 30%; inhibition of growth at 10 µM [28]: 28%; inhibition (Ovis aries): 1%; inhibition of growth at 10 µM [29]: 56%; inhibition of growth at 10 µM [30]: 59%; inhibition of growth at 10 µM [31]: 58%; inhibition of growth at 10 µM [32]: 60%; inhibition of growth at 10 µM [33]: 100%; inhibition of growth at 10 µM [34]: 28%; inhibition of growth at 10 µM [35]: 19%; inhibition of growth at 10 µM [36]: 69%; inhibition of growth at 10 µM [37]: 47%
